The assay relates to ciliary muscle. Description: Atropine inhibition of acetylcholine-induced ciliary muscle contraction (Magnus tube). It counts as cell-based, rabbit. To be noted: for inhibition at 1 µM: Oryctolagus cuniculus, atropine 10^-6 mol/L vs control; for Tension of Contraction (g), Tables 2 and 6 / Tension of Contraction (g), Tables 4 and 8 / Tension of Contraction (g), Tables 3 and 7: individual enucleated organs 1-2. The protocol:
The ciliary muscle obtained in EXAMPLE 1 was suspended in a Magnus tube filled with Krebs-Henseleit solution bubbled through with a mixed gas of 5% carbon dioxide and 95% oxygen. Krebs-Henseleit solution was prepared as follows. A-solution, B-solution, C-solution, water and D-solution were mixed at a ratio of 1:1:1:6:1 in the following order. First A-solution, B-solution and C-solution were mixed in the above ratio followed by the addition of distilled water. After rigorous mixing, D-solution was added. The solution thus prepared was shielded from light and used after heating at 37 degrees C.
The sample in the Magnus tube was suspended at a loading weight of 0.4 g using a tension transducer (Isometric Transducer, FD Pick-up TB-611 T type, made by Nihon Kohden Corporation, Tokyo, Japan). After equilibration for 30 minutes, acetylcholine (made by SIGMA, St. Louis, Mo.) at a final concentration of 10-4 mol/L was added for the first stimulation. After tension reached a plateau value, the sample was washed with a buffer until the tension returned to the baseline. This procedure was repeated nine times.
The tension of the sample upon each stimulation was recorded by the data collection software (VISUAL DESIGNER ver. 2.3, made by INTELLIGENT INSTRUMENTATION, Tucson, Ariz.) via the tension transducer, an input box (JD-112S type, made by Nihon Kohden Corporation), an amplifier for pressure strain (AP-621G type, made by Nihon Kohden Corporation) and an A.D. conversion board (PCI-20428W, made by INTELLIGENT INSTRUMENTATION).
The net tension was calculated by subtracting the baseline tension from the tension observed after stimulation, and this was defined as the contraction rate. The first net tension, i.e., tension at the first stimulation—baseline tension, was set as a contraction rate of 100%.
In addition, the sample in the Magnus tube was treated with atropine at a final concentration of 10-6 mol/L and subjected to acetylcholine stimulation as described above, in order to confirm whether the tension of the sample was in fact due to stimulation by acetylcholine.

The mark [1] stands for this setting: atropine 10^-6 mol/L, baseline tension data set.
The mark [2] stands for this setting: atropine 10^-6 mol/L, net tension data set.
The mark [3] stands for this setting: atropine 10^-6 mol/L, tension after acetylcholine stimulation data set.

Structures are written as SMILES. Several values for one entry are separate records, joined by “and”; a condition that tells them apart may be missing. Equal values may be shown once. Read-outs that look alike come from different tables or passages of the source.

In the case of `CN1[C@@H]2CC[C@H]1C[C@@H](OC(=O)C(CO)c1ccccc1)C2` (stereo partly shown) [atropine], the inhibition at 1 µM runs as follows: (baseline tension data set, read-out: Inhibition Value (%), Table 6) 84.6%; (net tension data set, read-out: Inhibition Value (%), Table 8) 75.6%; (tension after acetylcholine stimulation data set, read-out: Inhibition Value (%), Table 7) 82%. In addition, for the setting “atropine 10^-6 mol/L”, the “contraction of the ciliary muscle elicited by acetylcholine” value is on record as “inhibited”. Moreover, the “Tension of Contraction, Average ± standard deviation, Table 6” value under setting [1] is on record as 0.0245 ± 0.0024 g. The “Tension of Contraction (g), Tables 2 and 6” value by setting is: under setting [1], 0.0228 g and 0.0262 g; (atropine 10^-6 mol/L, baseline tension data set, listed as Artopine) 0.0228 g and 0.0262 g. Also, the “Tension of Contraction, Average ± standard deviation, Table 8” value under setting [2] was 0.0156 ± 0.0076 g. The “Tension of Contraction (g), Tables 4 and 8” value by setting is: under setting [2], 0.0102 g and 0.0210 g; (atropine 10^-6 mol/L, net tension data set, listed as Artopine) 0.0102 g and 0.0210 g. In addition, the “Tension of Contraction, Average ± standard deviation, Table 7” value under setting [3] turned out to be 0.0401 ± 0.0100 g. Also, the “Tension of Contraction (g), Tables 3 and 7” value runs as follows: under setting [3], 0.0330 g and 0.0472 g; (atropine 10^-6 mol/L, tension after acetylcholine stimulation data set, listed as Artopine) 0.0330 g and 0.0472 g.

By inhibition is commonly meant the share of the control response that was lost under treatment.

These data come from patent US20030077571A1, “Experimental model and method for evaluation of therapeutic agents against asthenopia” (priority 2001, published 2003).
